In brackets after ≈: the same amount, converted by molar mass. Like-named read-outs stand apart in the source and are kept apart here.
Test system: N. gonorrhoeae clinical isolates
Test: MIC, agar dilution (CLSI)
Assay type: cell-based, Neisseria gonorrhoeae
Conditions: Neisseria gonorrhoeae

## CC[C@H]1OC(=O)[C@H](C)[C@@H](O[C@H]2C[C@@](C)(OC)[C@@H](O)[C@H](C)O2)[C@H](C)[C@@H](O[C@@H]2O[C@H](C)C[C@H](N(C)C)[C@H]2O)[C@](C)(O)C[C@@H](C)CN(C)[C@H](C)[C@@H](O)[C@]1(C)O [Azi, azithromycin]
  MIC50: 0.125 µg/mL (≈ 0.167 µM)
Strain CDC1 (GCREF2012 016), read-out: MIC
  MIC: 0.25 µg/mL (≈ 0.334 µM)
Strain CDC2 (GCREF2012 045), read-out: MIC
  MIC: 0.5 µg/mL (≈ 0.668 µM)
Strain CDC3 (GCREF2013 013)
  MIC: 0.125 µg/mL (≈ 0.167 µM)
Strain CDC4 (GCREF2013 030)
  MIC: 0.125 µg/mL (≈ 0.167 µM)
Strain CDC5 (GCREF2012 001), read-out: MIC
  MIC: 0.5 µg/mL (≈ 0.668 µM)
Strain CDC6 (GCREF2012 002), read-out: MIC
  MIC: 0.5 µg/mL (≈ 0.668 µM)
Strain CDC8 (GCREF2012 004)
  MIC: 0.125 µg/mL (≈ 0.167 µM)
Strain CDC9 (GCREF2012 005)
  MIC: 0.125 µg/mL (≈ 0.167 µM)
Strain CDC10 (GCREF2012 006), read-out: MIC
  MIC: 0.5 µg/mL (≈ 0.668 µM)
Strain CDC11 (GCREF2012 007), read-out: MIC
  MIC: 0.25 µg/mL (≈ 0.334 µM)
Strain CDC12 (GCREF2012 008)
  MIC: 0.125 µg/mL (≈ 0.167 µM)
Strain CDC13 (GCREF2012 009)
  MIC: 0.125 µg/mL (≈ 0.167 µM)
Strain CDC14 (GCREF2012 010)
  MIC: 0.125 µg/mL (≈ 0.167 µM)
Strain CDC15 (GCREF2012 011), read-out: MIC
  MIC: 4 µg/mL (≈ 5.34 µM)
Strain CDC16 (GCREF2012 012), read-out: MIC
  MIC: 0.25 µg/mL (≈ 0.334 µM)
Strain CDC18 (GCREF2012 014), read-out: MIC
  MIC: 0.5 µg/mL (≈ 0.668 µM)
Strain CDC19 (GCREF2012 015), read-out: MIC
  MIC: 8 µg/mL (≈ 10.7 µM)
Strain CDC20 (GCREF2012 017), read-out: MIC
  MIC: > 16 µg/mL
Strain CDC21 (GCREF2012 018)
  MIC: 0.125 µg/mL (≈ 0.167 µM)
Strain CDC22 (GCREF2012 019), read-out: MIC
  MIC: 0.5 µg/mL (≈ 0.668 µM)
Strain CDC23 (GCREF2012 020)
  MIC: 0.125 µg/mL (≈ 0.167 µM)
Strain CDC24 (GCREF2012 021), read-out: MIC
  MIC: 0.25 µg/mL (≈ 0.334 µM)
Strain CDC25 (GCREF2012 022)
  MIC: 0.125 µg/mL (≈ 0.167 µM)
Strain CDC26 (GCREF2012 023), read-out: MIC
  MIC: 0.5 µg/mL (≈ 0.668 µM)
Strain CDC27 (GCREF2012 024), read-out: MIC
  MIC: 0.25 µg/mL (≈ 0.334 µM)
Strain CDC28 (GCREF2012 025), read-out: MIC
  MIC: 0.25 µg/mL (≈ 0.334 µM)
Strain CDC29 (GCREF2012 026), read-out: MIC
  MIC: 0.5 µg/mL (≈ 0.668 µM)
Strain CDC30 (GCREF2012 027), read-out: MIC
  MIC: 0.25 µg/mL (≈ 0.334 µM)
Strain CDC31 (GCREF2012 028), read-out: MIC
  MIC: 0.5 µg/mL (≈ 0.668 µM)
Strain CDC32 (GCREF2012 029)
  MIC: 0.125 µg/mL (≈ 0.167 µM)
Strain CDC33 (GCREF2012 030)
  MIC: 0.125 µg/mL (≈ 0.167 µM)
Strain CDC34 (GCREF2012 031)
  MIC: 0.125 µg/mL (≈ 0.167 µM)
Strain CDC35 (GCREF2012 032), read-out: MIC
  MIC: 0.25 µg/mL (≈ 0.334 µM)
Strain CDC36 (GCREF2012 033), read-out: MIC
  MIC: 4 µg/mL (≈ 5.34 µM)
Strain CDC37 (GCREF2012 034), read-out: MIC
  MIC: 0.25 µg/mL (≈ 0.334 µM)
Strain CDC38 (GCREF2012 035), read-out: MIC
  MIC: 0.25 µg/mL (≈ 0.334 µM)
Strain CDC39 (GCREF2012 036), read-out: MIC
  MIC: 0.25 µg/mL (≈ 0.334 µM)
Strain CDC40 (GCREF2012 037), read-out: MIC
  MIC: 0.25 µg/mL (≈ 0.334 µM)
Strain CDC41 (GCREF2012 038), read-out: MIC
  MIC: 0.25 µg/mL (≈ 0.334 µM)
Strain CDC42 (GCREF2012 039), read-out: MIC
  MIC: 0.25 µg/mL (≈ 0.334 µM)
Strain CDC43 (GCREF2012 040), read-out: MIC
  MIC: 0.25 µg/mL (≈ 0.334 µM)
Strain CDC45 (GCREF2012 042), read-out: MIC
  MIC: 0.5 µg/mL (≈ 0.668 µM)
Strain CDC46 (GCREF2012 043)
  MIC: 0.125 µg/mL (≈ 0.167 µM)
Strain CDC47 (GCREF2012 044), read-out: MIC
  MIC: 0.5 µg/mL (≈ 0.668 µM)
Strain CDC48 (GCREF2012 046), read-out: MIC
  MIC: 0.25 µg/mL (≈ 0.334 µM)
Strain CDC49 (GCREF2012 047), read-out: MIC
  MIC: 0.5 µg/mL (≈ 0.668 µM)
Strain CDC50 (GCREF2012 048), read-out: MIC
  MIC: 0.25 µg/mL (≈ 0.334 µM)
Strain CDC51 (GCREF2012 049)
  MIC: 0.125 µg/mL (≈ 0.167 µM)
Strain CDC52 (GCREF2012 050)
  MIC: 0.125 µg/mL (≈ 0.167 µM)
Strain CDC53 (GCREF2012 051)
  MIC: 0.125 µg/mL (≈ 0.167 µM)
Strain CDC54 (GCREF2012 052), read-out: MIC
  MIC: 0.016 µg/mL (≈ 0.0214 µM)
Strain CDC55 (GCREF2013 001)
  MIC: 0.125 µg/mL (≈ 0.167 µM)
Strain CDC56 (GCREF2013 002)
  MIC: 0.125 µg/mL (≈ 0.167 µM)
Strain CDC57 (GCREF2013 003)
  MIC: 0.125 µg/mL (≈ 0.167 µM)
Strain CDC58 (GCREF2013 004)
  MIC: 0.125 µg/mL (≈ 0.167 µM)
Strain CDC59 (GCREF2013 044)
  MIC: 0.125 µg/mL (≈ 0.167 µM)
Strain CDC60 (GCREF2013 005)
  MIC: 0.125 µg/mL (≈ 0.167 µM)
Strain CDC61 (GCREF2013 006), read-out: MIC
  MIC: 0.25 µg/mL (≈ 0.334 µM)
Strain CDC62 (GCREF2013 007)
  MIC: 0.125 µg/mL (≈ 0.167 µM)
Strain CDC63 (GCREF2013 008), read-out: MIC
  MIC: 0.016 µg/mL (≈ 0.0214 µM)
Strain CDC64 (GCREF2013 009)
  MIC: 0.125 µg/mL (≈ 0.167 µM)
Strain CDC65 (GCREF2013 010)
  MIC: 0.125 µg/mL (≈ 0.167 µM)
Strain CDC66 (GCREF2013 011), read-out: MIC
  MIC: 4 µg/mL (≈ 5.34 µM)
Strain CDC67 (GCREF2013 014)
  MIC: 0.125 µg/mL (≈ 0.167 µM)
Strain CDC68 (GCREF2013 016)
  MIC: 0.125 µg/mL (≈ 0.167 µM)
Strain CDC69 (GCREF2013 017)
  MIC: 0.125 µg/mL (≈ 0.167 µM)
Strain CDC70 (GCREF2013 018), read-out: MIC
  MIC: 4 µg/mL (≈ 5.34 µM)
Strain CDC71 (GCREF2013 019)
  MIC: 0.125 µg/mL (≈ 0.167 µM)
Strain CDC72 (GCREF2013 020)
  MIC: 0.125 µg/mL (≈ 0.167 µM)
Strain CDC73 (GCREF2013 021)
  MIC: 0.125 µg/mL (≈ 0.167 µM)
Strain CDC74 (GCREF2013 022)
  MIC: 0.125 µg/mL (≈ 0.167 µM)
Strain CDC75 (GCREF2013 023), read-out: MIC
  MIC: 0.5 µg/mL (≈ 0.668 µM)
Strain CDC76 (GCREF2013 024)
  MIC: 0.125 µg/mL (≈ 0.167 µM)
Strain CDC77 (GCREF2013 025), read-out: MIC
  MIC: 4 µg/mL (≈ 5.34 µM)
Strain CDC78 (GCREF2013 026), read-out: MIC
  MIC: 0.031 µg/mL (≈ 0.0414 µM)
Strain CDC79 (GCREF2013 027)
  MIC: 0.125 µg/mL (≈ 0.167 µM)
Strain CDC80 (GCREF2013 028), read-out: MIC
  MIC: 8 µg/mL (≈ 10.7 µM)
Strain CDC81 (GCREF2013 029)
  MIC: 0.125 µg/mL (≈ 0.167 µM)
Strain CDC82 (GCREF2013 031), read-out: MIC
  MIC: 2 µg/mL (≈ 2.67 µM)
Strain CDC83 (GCREF2013 032)
  MIC: 0.125 µg/mL (≈ 0.167 µM)
Strain CDC84 (GCREF2013 033)
  MIC: 0.125 µg/mL (≈ 0.167 µM)
Strain CDC86 (GCREF2013 035)
  MIC: 0.125 µg/mL (≈ 0.167 µM)
Strain CDC87 (GCREF2013 036)
  MIC: 0.125 µg/mL (≈ 0.167 µM)
Strain CDC88 (GCREF2013 037), read-out: MIC
  MIC: 2 µg/mL (≈ 2.67 µM)
Strain CDC89 (GCREF2013 038), read-out: MIC
  MIC: 2 µg/mL (≈ 2.67 µM)
Strain CDC90 (GCREF2013 039)
  MIC: 0.125 µg/mL (≈ 0.167 µM)
Strain CDC91 (GCREF2013 040)
  MIC: 0.125 µg/mL (≈ 0.167 µM)
Strain CDC92 (GCREF2013 041)
  MIC: 0.125 µg/mL (≈ 0.167 µM)
Strain CDC93 (GCREF2013 042)
  MIC: 0.125 µg/mL (≈ 0.167 µM)
Strain CDC94 (GCREF2013 043), read-out: MIC
  MIC: 2 µg/mL (≈ 2.67 µM)
Strain CDC95 (GCREF2013 045)
  MIC: 0.125 µg/mL (≈ 0.167 µM)
Strain CDC96 (GCREF2013 046)
  MIC: 0.125 µg/mL (≈ 0.167 µM)
Strain CDC97 (GCREF2013 047)
  MIC: 0.125 µg/mL (≈ 0.167 µM)
Strain CDC98 (GCREF2013 048), read-out: MIC
  MIC: 2 µg/mL (≈ 2.67 µM)
Strain CDC99 (GCREF2013 012), read-out: MIC
  MIC: 4 µg/mL (≈ 5.34 µM)
Strain CDC100 (GCREF2013 015)
  MIC: 0.125 µg/mL (≈ 0.167 µM)
96 clinical isolates, read-out: MIC90
  MIC90: 2 µg/mL (≈ 2.67 µM)
